PubChem BioAssay (NCI)
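96-well plates; 48 h exposure; 5 concentrations. Endpoints by linear interpolation between flanking doses. Not reached: highest tested concentration assigned. TGI is the concentration that stops growth completely.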

Legend:
Experiment in all cases: NCI-60 cell line screen, 48 h
[1] = system: 786-0 renal
[2] = system: A549 NSCLC
[3] = system: ACHN renal
[4] = system: BT-549 breast
[5] = system: CAKI-1 renal
[6] = system: CCRF-CEM leukemia
[7] = system: COLO 205 colon
[8] = system: DU-145 prostate
[9] = system: EKVX NSCLC
[10] = system: HCC-2998 colon
[11] = system: HCT-116 colon
[12] = system: HCT-15 colon
[13] = system: HL-60(TB) leukemia
[14] = system: HOP-62 NSCLC
[15] = system: HOP-92 NSCLC
[16] = system: HS 578T breast
[17] = system: HT29 colon
[18] = system: IGROV1 ovarian
[19] = system: K-562 leukemia
[20] = system: KM12 colon
[21] = system: LOX IMVI melanoma
[22] = system: M14 melanoma
[23] = system: MCF7 breast
[24] = system: MDA-MB-231 breast
[25] = system: MDA-MB-435
[26] = system: MOLT-4 leukemia
[27] = system: NCI-H226 lung
[28] = system: NCI-H23 lung
[29] = system: NCI-H460 lung
[30] = system: NCI-H522 lung
[31] = system: NCI/ADR-RES ovarian
[32] = system: OVCAR-3 ovarian
[33] = system: OVCAR-4 ovarian
[34] = system: OVCAR-5 ovarian
[35] = system: OVCAR-8 ovarian
[36] = system: PC-3 prostate
[37] = system: RPMI-8226 leukemia
[38] = system: RXF 393 renal
[39] = system: SF-268 CNS
[40] = system: SF-295 CNS
[41] = system: SF-539 CNS
[42] = system: SK-MEL-2 melanoma
[43] = system: SK-MEL-5 melanoma
[44] = system: SK-OV-3 ovarian
[45] = system: SN12C renal
[46] = system: SNB-19 CNS
[47] = system: SW-620 colon
[48] = system: T-47D breast
[49] = system: TK-10 renal
[50] = system: U251 CNS
[51] = system: UACC-257 melanoma
[52] = system: UACC-62 melanoma
[53] = system: UO-31 renal

Q: For C/C(O)=C(/C=N/C(=S)Nc1ccc(S(N)(=O)=O)cc1)C(=O)Nc1ccccc1C, which TGI [1] is on record?
A: Its TGI is greater than 100 µM.

Q: And the TGI [2]?
A: Its TGI is greater than 100 µM.

Q: What about the TGI [3] of the same compound?
A: The TGI was greater than 100 µM.

Q: And the TGI [4]?
A: The TGI was greater than 100 µM.

Q: And the TGI [5]?
A: Its TGI is greater than 100 µM.

Q: And the TGI [6]?
A: The TGI was 65.9 µM.

Q: And the TGI [7]?
A: The TGI was greater than 100 µM.

Q: What about the TGI [8] of the same compound?
A: Its TGI is greater than 100 µM.

Q: And the TGI [9]?
A: The TGI was greater than 100 µM.

Q: And the TGI [10]?
A: The TGI was greater than 100 µM.

Q: What about the TGI [11] of the same compound?
A: The TGI was greater than 100 µM.

Q: What about the TGI [12] of the same compound?
A: The TGI was greater than 100 µM.

Q: And the TGI [13]?
A: The TGI was 42.8 µM.

Q: And the TGI [14]?
A: Its TGI is greater than 100 µM.

Q: And the TGI [15]?
A: The TGI was greater than 100 µM.

Q: And the TGI [16]?
A: The TGI was greater than 100 µM.

Q: And the TGI [17]?
A: The TGI was greater than 100 µM.

Q: What about the TGI [18] of the same compound?
A: Its TGI is greater than 100 µM.

Q: And the TGI [19]?
A: Its TGI is greater than 100 µM.

Q: And the TGI [20]?
A: Its TGI is greater than 100 µM.

Q: What about the TGI [21] of the same compound?
A: Its TGI is 48.8 µM.

Q: And the TGI [22]?
A: The TGI was greater than 100 µM.

Q: What about the TGI [23] of the same compound?
A: The TGI was greater than 100 µM.

Q: What about the TGI [24] of the same compound?
A: The TGI was greater than 100 µM.

Q: What about the TGI [25] of the same compound?
A: The TGI was greater than 100 µM.

Q: What about the TGI [26] of the same compound?
A: Its TGI is greater than 100 µM.

Q: What about the TGI [27] of the same compound?
A: The TGI was greater than 100 µM.

Q: What about the TGI [28] of the same compound?
A: Its TGI is greater than 100 µM.

Q: What about the TGI [29] of the same compound?
A: Its TGI is greater than 100 µM.

Q: And the TGI [30]?
A: Its TGI is greater than 100 µM.

Q: What about the TGI [31] of the same compound?
A: Its TGI is greater than 100 µM.

Q: What about the TGI [32] of the same compound?
A: Its TGI is greater than 100 µM.

Q: And the TGI [33]?
A: The TGI was greater than 100 µM.

Q: And the TGI [34]?
A: The TGI was greater than 100 µM.

Q: What about the TGI [35] of the same compound?
A: Its TGI is greater than 100 µM.

Q: And the TGI [36]?
A: The TGI was greater than 100 µM.

Q: What about the TGI [37] of the same compound?
A: The TGI was 97.3 µM.

Q: And the TGI [38]?
A: Its TGI is greater than 100 µM.

Q: And the TGI [39]?
A: The TGI was greater than 100 µM.

Q: What about the TGI [40] of the same compound?
A: The TGI was greater than 100 µM.

Q: What about the TGI [41] of the same compound?
A: The TGI was greater than 100 µM.

Q: What about the TGI [42] of the same compound?
A: The TGI was greater than 100 µM.

Q: What about the TGI [43] of the same compound?
A: Its TGI is greater than 100 µM.

Q: What about the TGI [44] of the same compound?
A: Its TGI is greater than 100 µM.

Q: What about the TGI [45] of the same compound?
A: The TGI was greater than 100 µM.

Q: What about the TGI [46] of the same compound?
A: Its TGI is greater than 100 µM.

Q: What about the TGI [47] of the same compound?
A: The TGI was greater than 100 µM.

Q: What about the TGI [48] of the same compound?
A: Its TGI is greater than 100 µM.

Q: And the TGI [49]?
A: The TGI was greater than 100 µM.

Q: And the TGI [50]?
A: The TGI was greater than 100 µM.

Q: What about the TGI [51] of the same compound?
A: The TGI was greater than 100 µM.

Q: What about the TGI [52] of the same compound?
A: Its TGI is greater than 100 µM.

Q: And the TGI [53]?
A: Its TGI is greater than 100 µM.
